The source of these data is EP0514216A1, “Antihypotensive benzofuran derivatives with N-linked 1H-imidazolyl-methyl-5-carboxamide substituents” (GLAXO GROUP LIMITED, priority 1991, dated 1992).

This assay deals with renal-ligated hypertensive rats. Briefly: anti-hypertensive activity in vivo using renal-ligated hypertensive rats. The conditions noted are these: for Reduction in diastolic blood pressure after 7h. i.a.: 0.5mg/kg intra-arterially (i.a.); for Reduction in diastolic blood pressure after 7h. p.o.: 0.5mg/kg orally (p.o.). Details: unit not given here. As for the experimental part: Compounds of the present invention are also analysed for their anti-hypertensive activity in vivo using renal-ligated hypertensive rats.

Regarding `CCc1nc(Cl)c(C(=O)NC)n1Cc1ccc2oc(-c3ccccc3NS(=O)(=O)C(F)(F)F)c(Br)c2c1` [Example 12, 1-[[3-Bromo-2-[2-[[(trifluoromethyl)sulphonyl]amino]phenyl]-5-benzofuranyl]methyl]-4-chloro-2-ethyl-N-methyl-1H-imidazole-5-carboxamide], the “Reduction in diastolic blood pressure after 7h. i.a.” value (shortened to “Reduction … after 7h. i.a.”) is recorded as -42 and the “Reduction in diastolic blood pressure after 7h. p.o.” value (“Reduction … after 7h. p.o.” for short) is recorded as -31.

For `CCc1nc(Cl)c(C(N)=O)n1Cc1ccc2oc(-c3ccccc3NS(=O)(=O)C(F)(F)F)c(Br)c2c1` [Example 1, 1-[[3-Bromo-2-[2-[[(trifluoromethyl)sulphonyl]amino]phenyl]-5-benzofuranyl]methyl]-4-chloro-2-ethyl-1H-imidazole-5-carboxamide], the “Reduction … after 7h. i.a.” value is on record as -49 and the “Reduction … after 7h. p.o.” value was -55.

For the molecule `CCc1nc(C)c(C(=O)NC)n1Cc1ccc2oc(-c3ccccc3NS(=O)(=O)C(F)(F)F)c(Br)c2c1` [Example 13, 1-[[3-Bromo-2-[2-[[(trifluoromethyl)sulphonyl]amino]phenyl]-5-benzofuranyl]methyl]-2-ethyl-4-methyl-N-methyl-1H-imidazole-5-carboxamide], the “Reduction … after 7h. i.a.” value is listed as -39 and the “Reduction … after 7h. p.o.” value is -54.

For `CCCc1nc(Cl)c(C(=O)NC)n1Cc1ccc2oc(-c3ccccc3NS(=O)(=O)C(F)(F)F)c(Br)c2c1` [Example 2, 1-[[3-Bromo-2-[2-[[(trifluoromethyl)sulphonyl]amino]phenyl]-5-benzofuranyl]methyl]-4-chloro-N-methyl-2-propyl-1H-imidazole-5-carboxamide], the “Reduction … after 7h. i.a.” value is recorded as -43 and the “Reduction … after 7h. p.o.” value is listed as -60.
